Test results reported in patent US20020111274A1, “1-alkyl-3-[1-(substituted phenyl) benzotriazol-6-yl] uracils” (BASF Aktiengesellschaft, priority 2000, published 2002).

Tests used:
Set-up in all cases: scale not given here
[1] = tested on: GLXMAW Soybean, Williams; experiment: Preemergence herbicidal evaluation, GLXMAW; assay type: in vivo, Glycine max, (L.) Merr. cv Williams; details: preemergence
From the text: (§1) The preemergence herbicidal activity of the test compounds of the present invention is exemplified by the following tests in which the seeds of a variety of monocotyledonous and dicotyledonous plants are separately mixed with potting soil and planted on top of approximately one inch of soil in separate pint cups. […] The treated cups are then placed on greenhouse benches, watered and cared for in accordance with conventional greenhouse procedures. From four to five weeks after treatment, the tests are terminated and each cup is examined and rated according to the rating system provided in Example 46.

[2] = tested on: GLXMAW Soybean, Williams; experiment: Postemergence herbicidal evaluation, GLXMAW; assay type: in vivo, Glycine max, (L.) Merr. cv Williams; details: postemergence spray, rated about two-three weeks after treatment
Experimental: (§2) In this evaluation, seedling plants are grown in jiffy flats for about two weeks. The test compounds are dispersed in 80/20 acetone/water mixtures containing 1.0% SUN-IT® II, a methylated seed oil, in sufficient quantities to provide the equivalent of about 0.006 kg to 0.400 kg per hectare of active compound when applied to the plants through a spray nozzle operating at 40 psi for a predetermined time. After spraying, the plants are placed on greenhouse benches and are cared for in accordance with conventional greenhouse procedures. Approximately two - three weeks after treatment, the seedling plants are examined and rated according to the rating system set forth below. Where more than one test is involved for a given compound, the data are averaged.

[3] = tested on: ABUTH Velvetleaf; experiment: Preemergence herbicidal evaluation, ABUTH; assay type: in vivo, Abutilon theophrasti, Medic.; details: preemergence
From the text: as §1

[4] = tested on: IPOHE Morningglory, Ivyleaf; experiment: Postemergence herbicidal evaluation, IPOHE; assay type: in vivo, Ipomoea hederacea, (L.) Jacq.; details: postemergence spray, rated about two-three weeks after treatment
Experimental: as §2

[5] = tested on: ORYSAT Rice, Tebonnet; experiment: Postemergence herbicidal evaluation, ORYSAT; assay type: in vivo, Oryza sativa, (L.); details: postemergence spray, rated about two-three weeks after treatment
Experimental: as §2

[6] = tested on: ECHOG Barnyardgrass; experiment: Preemergence herbicidal evaluation, ECHOG; assay type: in vivo, Echinochloa crus-galli, (L.) Beau; details: preemergence
From the text: as §1

[7] = tested on: IPOHE Morningglory, Ivyleaf; experiment: Preemergence herbicidal evaluation, IPOHE; assay type: in vivo, Ipomoea hederacea, (L.) Jacq.; details: preemergence
From the text: as §1

[8] = tested on: TRZAWR Wheat, Winter, cv Riband; experiment: Postemergence herbicidal evaluation, TRZAWR; assay type: in vivo, Triticum aestivum; details: postemergence spray, rated about two-three weeks after treatment
Experimental: as §2

[9] = tested on: SETVI Foxtail, Green; experiment: Preemergence herbicidal evaluation, SETVI; assay type: in vivo, Setaria viridis, (L.) Beau; details: preemergence
From the text: as §1

[10] = tested on: GALAP Galium; experiment: Postemergence herbicidal evaluation, GALAP; assay type: in vivo, Galium aparine; details: postemergence spray, rated about two-three weeks after treatment
Experimental: as §2

[11] = tested on: ZEAMX Corn, Field; experiment: Preemergence herbicidal evaluation, ZEAMX; assay type: in vivo, Zea mays, L. (Sammel-Bezeichnung); details: preemergence
From the text: as §1

[12] = tested on: CHEAL Lambsquarters, Common; experiment: Preemergence herbicidal evaluation, CHEAL; assay type: in vivo, Chenopodium album, L.; details: preemergence
From the text: as §1

[13] = tested on: CASOB Sicklepod; experiment: Postemergence herbicidal evaluation, CASOB; assay type: in vivo, Cassia obtusifolia, L.; details: postemergence spray, rated about two-three weeks after treatment
Experimental: as §2

[14] = tested on: ZEAMX Corn, Field; experiment: Postemergence herbicidal evaluation, ZEAMX; assay type: in vivo, Zea mays, L. (Sammel-Bezeichnung); details: postemergence spray, rated about two-three weeks after treatment
Experimental: as §2

[15] = tested on: ABUTH Velvetleaf; experiment: Postemergence herbicidal evaluation, ABUTH; assay type: in vivo, Abutilon theophrasti, Medic.; details: postemergence spray, rated about two-three weeks after treatment
Experimental: as §2

[16] = tested on: AMBEL Ragweed, Common; experiment: Postemergence herbicidal evaluation, AMBEL; assay type: in vivo, Ambrosia artemisifolia, L.; details: postemergence spray, rated about two-three weeks after treatment
Experimental: as §2

[17] = tested on: GALAP Galium; experiment: Preemergence herbicidal evaluation, GALAP; assay type: in vivo, Galium aparine; details: preemergence
From the text: as §1

[18] = tested on: ECHOG Barnyardgrass; experiment: Postemergence herbicidal evaluation, ECHOG; assay type: in vivo, Echinochloa crus-galli, (L.) Beau; details: postemergence spray, rated about two-three weeks after treatment
Experimental: as §2

[19] = tested on: CASOB Sicklepod; experiment: Preemergence herbicidal evaluation, CASOB; assay type: in vivo, Cassia obtusifolia, L.; details: preemergence
From the text: as §1

[20] = tested on: AMBEL Ragweed, Common; experiment: Preemergence herbicidal evaluation, AMBEL; assay type: in vivo, Ambrosia artemisifolia, L.; details: preemergence
From the text: as §1

[21] = tested on: CHEAL Lambsquarters, Common; experiment: Postemergence herbicidal evaluation, CHEAL; assay type: in vivo, Chenopodium album, L.; details: postemergence spray, rated about two-three weeks after treatment
Experimental: as §2

[22] = tested on: TRZAWR Wheat, Winter, cv Riband; experiment: Preemergence herbicidal evaluation, TRZAWR; assay type: in vivo, Triticum aestivum; details: preemergence
From the text: as §1

[23] = tested on: ORYSAT Rice, Tebonnet; experiment: Preemergence herbicidal evaluation, ORYSAT; assay type: in vivo, Oryza sativa, (L.); details: preemergence
From the text: as §1

[24] = tested on: SETVI Foxtail, Green; experiment: Postemergence herbicidal evaluation, SETVI; assay type: in vivo, Setaria viridis, (L.) Beau; details: postemergence spray, rated about two-three weeks after treatment
Experimental: as §2

CCc1ccccc1-n1nnc2cc(F)c(-n3c(=O)cc(C(F)(F)F)n(C)c3=O)cc21 [Example 25]
GLXMAW herbicidal rating ([1]; rate 0.016 kg/ha): 0.0 | GLXMAW herbicidal rating ([1]; rate 0.032 kg/ha): 0.0 | GLXMAW herbicidal rating ([1]; rate 0.062 kg/ha): 2.0 | GLXMAW herbicidal rating ([1]; rate 0.125 kg/ha): 1.5 | Postemergence herbicidal rating GLXMAW ([2]; 0.008 kg/ha): 3.0 | Postemergence herbicidal rating GLXMAW ([2]; 0.016 kg/ha): 4.5 | Postemergence herbicidal rating GLXMAW ([2]; 0.032 kg/ha): 5.0 | Postemergence herbicidal rating GLXMAW ([2]; 0.062 kg/ha): 6.5 | ABUTH herbicidal rating ([3]; rate 0.016 kg/ha): 3.0 | ABUTH herbicidal rating ([3]; rate 0.032 kg/ha): 6.0 | ABUTH herbicidal rating ([3]; rate 0.062 kg/ha): 6.0 | ABUTH herbicidal rating ([3]; rate 0.125 kg/ha): 9.0 | Postemergence herbicidal rating IPOHE ([4]; 0.008 kg/ha): 2.0 | Postemergence herbicidal rating IPOHE ([4]; 0.016 kg/ha): 3.0 | Postemergence herbicidal rating IPOHE ([4]; 0.032 kg/ha): 9.0 | Postemergence herbicidal rating IPOHE ([4]; 0.062 kg/ha): 9.0 | Postemergence herbicidal rating ORYSAT ([5]; 0.008 kg/ha): 0.5 | Postemergence herbicidal rating ORYSAT ([5]; 0.016 kg/ha): 1.0 | Postemergence herbicidal rating ORYSAT ([5]; 0.032 kg/ha): 1.5 | Postemergence herbicidal rating ORYSAT ([5]; 0.062 kg/ha): 2.0 | ECHCG herbicidal rating ([6]; rate 0.016 kg/ha): 0.0 | ECHCG herbicidal rating ([6]; rate 0.032 kg/ha): 0.0 | ECHCG herbicidal rating ([6]; rate 0.062 kg/ha): 2.0 | ECHCG herbicidal rating ([6]; rate 0.125 kg/ha): 8.0 | IPOHE herbicidal rating ([7]; rate 0.016 kg/ha): 0.0 | IPOHE herbicidal rating ([7]; rate 0.032 kg/ha): 4.5 | IPOHE herbicidal rating ([7]; rate 0.062 kg/ha): 5.5 | IPOHE herbicidal rating ([7]; rate 0.125 kg/ha): 6.5 | Postemergence herbicidal rating TRZAWR ([8]; 0.008 kg/ha): 1.5 | Postemergence herbicidal rating TRZAWR ([8]; 0.016 kg/ha): 2.5 | Postemergence herbicidal rating TRZAWR ([8]; 0.032 kg/ha): 3.0 | Postemergence herbicidal rating TRZAWR ([8]; 0.062 kg/ha): 3.0 | SETVI herbicidal rating ([9]; rate 0.016 kg/ha): 0.0 | SETVI herbicidal rating ([9]; rate 0.032 kg/ha): 3.5 | SETVI herbicidal rating ([9]; rate 0.062 kg/ha): 9.0 | SETVI herbicidal rating ([9]; rate 0.125 kg/ha): 9.0 | Postemergence herbicidal rating GALAP ([10]; 0.008 kg/ha): 0.0 | Postemergence herbicidal rating GALAP ([10]; 0.016 kg/ha): 0.0 | Postemergence herbicidal rating GALAP ([10]; 0.032 kg/ha): 4.0 | Postemergence herbicidal rating GALAP ([10]; 0.062 kg/ha): 4.0 | ZEAMX herbicidal rating ([11]; rate 0.016 kg/ha): 0.0 | ZEAMX herbicidal rating ([11]; rate 0.032 kg/ha): 0.0 | ZEAMX herbicidal rating ([11]; rate 0.062 kg/ha): 2.0 | ZEAMX herbicidal rating ([11]; rate 0.125 kg/ha): 4.0 | CHEAL herbicidal rating ([12]; rate 0.016 kg/ha): 9.0 | CHEAL herbicidal rating ([12]; rate 0.032 kg/ha): 9.0 | CHEAL herbicidal rating ([12]; rate 0.062 kg/ha): 9.0 | CHEAL herbicidal rating ([12]; rate 0.125 kg/ha): 9.0 | Postemergence herbicidal rating CASOB ([13]; 0.008 kg/ha): 0.0 | Postemergence herbicidal rating CASOB ([13]; 0.016 kg/ha): 0.0 | Postemergence herbicidal rating CASOB ([13]; 0.032 kg/ha): 0.0 | Postemergence herbicidal rating CASOB ([13]; 0.062 kg/ha): 1.0 | Postemergence herbicidal rating ZEAMX ([14]; 0.008 kg/ha): 3.0 | Postemergence herbicidal rating ZEAMX ([14]; 0.016 kg/ha): 3.5 | Postemergence herbicidal rating ZEAMX ([14]; 0.032 kg/ha): 4.0 | Postemergence herbicidal rating ZEAMX ([14]; 0.062 kg/ha): 5.0 | Postemergence herbicidal rating ABUTH ([15]; 0.008 kg/ha): 6.0 | Postemergence herbicidal rating ABUTH ([15]; 0.016 kg/ha): 8.0 | Postemergence herbicidal rating ABUTH ([15]; 0.032 kg/ha): 9.0 | Postemergence herbicidal rating ABUTH ([15]; 0.062 kg/ha): 9.0 | Postemergence herbicidal rating AMBEL ([16]; 0.008 kg/ha): 0.0 | Postemergence herbicidal rating AMBEL ([16]; 0.016 kg/ha): 0.0 | Postemergence herbicidal rating AMBEL ([16]; 0.032 kg/ha): 2.0 | Postemergence herbicidal rating AMBEL ([16]; 0.062 kg/ha): 2.0 | GALAP herbicidal rating ([17]; rate 0.016 kg/ha): 0.0 | GALAP herbicidal rating ([17]; rate 0.032 kg/ha): 0.0 | GALAP herbicidal rating ([17]; rate 0.062 kg/ha): 0.0 | GALAP herbicidal rating ([17]; rate 0.125 kg/ha): 0.0 | Postemergence herbicidal rating ECHCG ([18]; 0.008 kg/ha): 0.0 | Postemergence herbicidal rating ECHCG ([18]; 0.016 kg/ha): 0.0 | Postemergence herbicidal rating ECHCG ([18]; 0.032 kg/ha): 0.0 | Postemergence herbicidal rating ECHCG ([18]; 0.062 kg/ha): 0.0 | CASOB herbicidal rating ([19]; rate 0.016 kg/ha): 0.0 | CASOB herbicidal rating ([19]; rate 0.032 kg/ha): 0.0 | CASOB herbicidal rating ([19]; rate 0.062 kg/ha): 1.5 | CASOB herbicidal rating ([19]; rate 0.125 kg/ha): 2.0 | AMBEL herbicidal rating ([20]; rate 0.016 kg/ha): 0.0 | AMBEL herbicidal rating ([20]; rate 0.032 kg/ha): 0.0 | AMBEL herbicidal rating ([20]; rate 0.062 kg/ha): 1.0 | AMBEL herbicidal rating ([20]; rate 0.125 kg/ha): 3.5 | Postemergence herbicidal rating CHEAL ([21]; 0.008 kg/ha): 3.0 | Postemergence herbicidal rating CHEAL ([21]; 0.016 kg/ha): 9.0 | Postemergence herbicidal rating CHEAL ([21]; 0.032 kg/ha): 9.0 | Postemergence herbicidal rating CHEAL ([21]; 0.062 kg/ha): 9.0 | TRZAWR herbicidal rating ([22]; rate 0.016 kg/ha): 0.0 | TRZAWR herbicidal rating ([22]; rate 0.032 kg/ha): 0.0 | TRZAWR herbicidal rating ([22]; rate 0.062 kg/ha): 0.0 | TRZAWR herbicidal rating ([22]; rate 0.125 kg/ha): 2.0 | ORYSAT herbicidal rating ([23]; rate 0.016 kg/ha): 0.0 | ORYSAT herbicidal rating ([23]; rate 0.032 kg/ha): 0.0 | ORYSAT herbicidal rating ([23]; rate 0.062 kg/ha): 0.0 | ORYSAT herbicidal rating ([23]; rate 0.125 kg/ha): 1.5 | Postemergence herbicidal rating SETVI ([24]; 0.008 kg/ha): 0.0 | Postemergence herbicidal rating SETVI ([24]; 0.016 kg/ha): 0.0 | Postemergence herbicidal rating SETVI ([24]; 0.032 kg/ha): 3.0 | Postemergence herbicidal rating SETVI ([24]; 0.062 kg/ha): 7.0
